Experimental data taken from article PMC7206119, “RIP1 inhibition blocks inflammatory diseases but not tumor growth or metastases” (Cell Death and Differentiation, 2019).

Legend:
Assay in all cases: biochemical
NLK = NLK (Homo sapiens, UniProt Q9UBE8); set-up: Thermo Fisher SelectScreen kinase panel: Z'-LYTE and Adapta activity, LanthaScreen binding
How it was run: (§1)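 Single-concentration panel: 10 µM GNE684 in KINOMEscan scanMAX binding (468 kinases) and in a 221-kinase panel run as Z'-LYTE/Adapta activity or LanthaScreen binding assays.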

MET = MET (Homo sapiens, UniProt P08581); set-up: Thermo Fisher SelectScreen kinase panel: Z'-LYTE and Adapta activity, LanthaScreen binding
Sequence of MET (P08581 whole entry): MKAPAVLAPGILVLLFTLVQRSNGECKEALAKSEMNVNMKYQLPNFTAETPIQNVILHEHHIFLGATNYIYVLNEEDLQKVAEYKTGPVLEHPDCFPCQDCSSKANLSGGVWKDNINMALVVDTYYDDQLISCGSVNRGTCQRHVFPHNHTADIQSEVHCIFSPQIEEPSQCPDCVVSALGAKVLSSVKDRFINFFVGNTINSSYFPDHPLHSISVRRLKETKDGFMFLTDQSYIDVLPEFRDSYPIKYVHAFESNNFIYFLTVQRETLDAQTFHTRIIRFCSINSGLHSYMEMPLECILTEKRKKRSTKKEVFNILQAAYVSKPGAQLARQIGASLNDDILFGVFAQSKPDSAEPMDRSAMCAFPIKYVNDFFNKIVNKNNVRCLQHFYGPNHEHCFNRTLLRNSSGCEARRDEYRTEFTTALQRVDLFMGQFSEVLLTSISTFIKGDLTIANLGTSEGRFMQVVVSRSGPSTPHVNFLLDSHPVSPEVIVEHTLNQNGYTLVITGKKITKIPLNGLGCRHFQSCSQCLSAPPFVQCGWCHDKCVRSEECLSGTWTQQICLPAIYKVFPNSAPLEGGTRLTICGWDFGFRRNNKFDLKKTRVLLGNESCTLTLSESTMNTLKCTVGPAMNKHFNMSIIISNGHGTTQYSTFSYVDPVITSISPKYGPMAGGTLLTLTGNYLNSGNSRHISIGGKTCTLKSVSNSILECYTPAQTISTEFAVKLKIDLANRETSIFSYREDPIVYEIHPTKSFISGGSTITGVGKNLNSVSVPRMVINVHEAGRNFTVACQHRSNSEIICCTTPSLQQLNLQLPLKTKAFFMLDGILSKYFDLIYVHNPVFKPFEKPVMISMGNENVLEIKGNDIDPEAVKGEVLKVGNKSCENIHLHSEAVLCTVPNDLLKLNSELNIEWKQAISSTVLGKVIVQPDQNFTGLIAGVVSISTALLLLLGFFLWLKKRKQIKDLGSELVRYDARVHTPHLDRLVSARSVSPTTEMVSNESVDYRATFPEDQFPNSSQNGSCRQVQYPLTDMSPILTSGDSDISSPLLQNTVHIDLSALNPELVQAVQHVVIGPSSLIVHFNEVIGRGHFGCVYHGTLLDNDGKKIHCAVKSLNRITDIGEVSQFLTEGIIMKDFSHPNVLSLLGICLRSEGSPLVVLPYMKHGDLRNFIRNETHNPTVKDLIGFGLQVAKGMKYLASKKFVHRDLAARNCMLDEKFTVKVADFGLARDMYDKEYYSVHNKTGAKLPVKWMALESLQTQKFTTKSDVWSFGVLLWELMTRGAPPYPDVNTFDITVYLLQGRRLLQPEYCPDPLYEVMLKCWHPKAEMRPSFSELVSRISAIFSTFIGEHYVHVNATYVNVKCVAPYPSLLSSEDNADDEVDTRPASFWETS
How it was run: as §1

PASK = PASK (Homo sapiens, UniProt Q96RG2); set-up: Thermo Fisher SelectScreen kinase panel: Z'-LYTE and Adapta activity, LanthaScreen binding
How it was run: as §1

EPHB3 = EPHB3 (Homo sapiens, UniProt P54753); set-up: Thermo Fisher SelectScreen kinase panel: Z'-LYTE and Adapta activity, LanthaScreen binding
How it was run: as §1

CDK1/cyclinB = CDK1/cyclinB (Homo sapiens, UniProt P06493); set-up: Thermo Fisher SelectScreen kinase panel: Z'-LYTE and Adapta activity, LanthaScreen binding
Sequence of CDK1/cyclinB (P06493 whole entry): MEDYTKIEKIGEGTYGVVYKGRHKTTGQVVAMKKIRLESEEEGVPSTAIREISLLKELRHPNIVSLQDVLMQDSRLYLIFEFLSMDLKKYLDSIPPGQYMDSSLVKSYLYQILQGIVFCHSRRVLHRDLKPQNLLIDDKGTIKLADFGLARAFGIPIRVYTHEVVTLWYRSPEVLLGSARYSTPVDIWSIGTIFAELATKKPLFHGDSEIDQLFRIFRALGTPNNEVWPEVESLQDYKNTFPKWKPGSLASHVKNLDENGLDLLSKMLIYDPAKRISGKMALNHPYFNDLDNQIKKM
Sequence of CDK1/cyclinB (P14635 whole entry partner): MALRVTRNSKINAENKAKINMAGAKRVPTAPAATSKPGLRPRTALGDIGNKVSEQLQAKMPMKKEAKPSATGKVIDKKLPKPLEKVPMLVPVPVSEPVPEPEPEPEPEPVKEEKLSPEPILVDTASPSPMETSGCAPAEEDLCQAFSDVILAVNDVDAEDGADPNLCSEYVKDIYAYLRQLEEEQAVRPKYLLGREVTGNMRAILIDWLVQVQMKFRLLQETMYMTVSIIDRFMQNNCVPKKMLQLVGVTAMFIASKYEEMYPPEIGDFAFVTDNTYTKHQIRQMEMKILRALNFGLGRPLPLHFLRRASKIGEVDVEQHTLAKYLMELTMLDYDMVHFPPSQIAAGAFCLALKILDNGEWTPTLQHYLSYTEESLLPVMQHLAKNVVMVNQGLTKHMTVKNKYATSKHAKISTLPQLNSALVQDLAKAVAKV
How it was run: as §1

MTOR = MTOR (Homo sapiens, UniProt P42345); set-up: Thermo Fisher SelectScreen kinase panel: Z'-LYTE and Adapta activity, LanthaScreen binding
How it was run: as §1

Mer = molecular target: T1, Mer (Homo sapiens, UniProt Q12866); set-up: Thermo Fisher SelectScreen kinase panel: Z'-LYTE and Adapta activity, LanthaScreen binding
T1 construct: gene MERTK
How it was run: as §1

DRAK1 = molecular target: T2, DRAK1 (Homo sapiens, UniProt Q9UEE5); set-up: Thermo Fisher SelectScreen kinase panel: Z'-LYTE and Adapta activity, LanthaScreen binding
T2 construct: gene STK17A
T2 sequence (Q9UEE5 whole entry): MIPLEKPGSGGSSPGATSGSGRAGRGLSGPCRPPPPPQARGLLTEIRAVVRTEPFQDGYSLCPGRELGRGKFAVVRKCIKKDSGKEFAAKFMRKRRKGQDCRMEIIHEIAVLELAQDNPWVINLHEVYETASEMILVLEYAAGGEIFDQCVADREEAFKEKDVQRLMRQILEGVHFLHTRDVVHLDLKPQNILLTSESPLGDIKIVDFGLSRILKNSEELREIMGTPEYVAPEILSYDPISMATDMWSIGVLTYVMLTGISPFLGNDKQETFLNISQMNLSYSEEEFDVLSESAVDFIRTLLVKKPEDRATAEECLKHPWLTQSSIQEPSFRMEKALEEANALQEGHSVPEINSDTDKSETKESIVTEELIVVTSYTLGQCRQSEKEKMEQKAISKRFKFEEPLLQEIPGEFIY
How it was run: as §1

Ron = molecular target: T3, Ron (Homo sapiens, UniProt Q04912); set-up: Thermo Fisher SelectScreen kinase panel: Z'-LYTE and Adapta activity, LanthaScreen binding
T3 construct: gene MST1R
How it was run: as §1

DYRK4 = DYRK4 (Homo sapiens, UniProt Q9NR20); set-up: Thermo Fisher SelectScreen kinase panel: Z'-LYTE and Adapta activity, LanthaScreen binding
How it was run: as §1

FAK = molecular target: T4, FAK (Homo sapiens, UniProt Q05397); set-up: Thermo Fisher SelectScreen kinase panel: Z'-LYTE and Adapta activity, LanthaScreen binding
T4 construct: gene PTK2
How it was run: as §1

GRK6 = GRK6 (Homo sapiens, UniProt P43250); set-up: Thermo Fisher SelectScreen kinase panel: Z'-LYTE and Adapta activity, LanthaScreen binding
How it was run: as §1

BTK = BTK (Homo sapiens, UniProt Q06187); set-up: Thermo Fisher SelectScreen kinase panel: Z'-LYTE and Adapta activity, LanthaScreen binding
How it was run: as §1

MARK1 = MARK1 (Homo sapiens, UniProt Q9P0L2); set-up: Thermo Fisher SelectScreen kinase panel: Z'-LYTE and Adapta activity, LanthaScreen binding
Sequence of MARK1 (Q9P0L2 whole entry): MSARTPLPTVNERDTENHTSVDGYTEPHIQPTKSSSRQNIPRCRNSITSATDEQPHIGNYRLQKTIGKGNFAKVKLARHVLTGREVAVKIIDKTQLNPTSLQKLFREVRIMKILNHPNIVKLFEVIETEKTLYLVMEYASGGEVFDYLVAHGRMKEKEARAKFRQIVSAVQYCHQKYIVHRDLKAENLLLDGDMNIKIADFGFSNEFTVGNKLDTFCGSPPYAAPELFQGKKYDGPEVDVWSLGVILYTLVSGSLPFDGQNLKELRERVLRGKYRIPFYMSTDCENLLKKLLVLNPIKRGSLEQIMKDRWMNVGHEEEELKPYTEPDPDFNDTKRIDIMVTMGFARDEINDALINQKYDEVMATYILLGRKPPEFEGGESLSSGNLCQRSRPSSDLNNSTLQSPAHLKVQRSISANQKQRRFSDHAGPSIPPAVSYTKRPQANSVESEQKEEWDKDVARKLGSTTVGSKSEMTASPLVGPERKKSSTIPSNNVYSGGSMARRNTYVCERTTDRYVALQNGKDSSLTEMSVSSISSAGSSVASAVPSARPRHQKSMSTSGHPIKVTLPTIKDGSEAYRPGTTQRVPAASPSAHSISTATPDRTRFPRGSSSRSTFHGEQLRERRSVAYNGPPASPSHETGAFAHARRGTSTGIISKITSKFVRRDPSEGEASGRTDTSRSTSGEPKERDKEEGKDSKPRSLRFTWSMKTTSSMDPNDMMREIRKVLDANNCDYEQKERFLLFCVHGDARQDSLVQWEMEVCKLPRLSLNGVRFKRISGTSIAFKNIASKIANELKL
How it was run: as §1

PKC_delta = molecular target: T5, PKC_delta (Homo sapiens, UniProt Q05655); set-up: Thermo Fisher SelectScreen kinase panel: Z'-LYTE and Adapta activity, LanthaScreen binding
T5 construct: gene PRKCD
How it was run: as §1

LTK = LTK (Homo sapiens, UniProt P29376); set-up: DiscoverX kinase panel, active-site competition binding (KINOMEscan type), percent of control at one concentration; conditions: competition binding, percent of control
Source text: (§2) To investigate the potential therapeutic benefit of inhibiting RIP1, we developed GNE684 or (S)-N-((S)-7-methoxy-1-methyl-2-oxo-2,3,4,5-tetrahydro-1H-pyrido[3,4-b]azepin-3-yl)-5-phenyl-6,7-dihydro-5H-pyrrolo[1,2-b][1,2,4]triazole-2-carboxamide with cross-species potency against RIP1, exquisite kinase selectivity, and favorable pharmacological properties (Fig. 1a–h, S1, Tables S1 and S2, SI file 1). […] (Fig. 1b, S1, and Table S1). […] GNE684 inhibited human RIP1 potently in vitro, and mouse and rat RIP1 with slightly less potency (Fig. 1d). Accordingly, it inhibited TNF-induced necroptosis in human HT-29, mouse L929, or rat H9c2 cells (Fig. 1e). The cellular potency of GNE684 was confirmed in a human whole blood assay using TBZ ([compound left out], IAP antagonist BV6, and pan-caspase inhibitor zVAD) or LZ (LPS plus zVAD) to trigger necroptosis and the release of IL-1α and IL-1β (Fig. 1f).

STK33 = STK33 (Homo sapiens, UniProt Q9BYT3); set-up: DiscoverX kinase panel, active-site competition binding (KINOMEscan type), percent of control at one concentration; conditions: competition binding, percent of control
Sequence of STK33 (Q9BYT3 whole entry): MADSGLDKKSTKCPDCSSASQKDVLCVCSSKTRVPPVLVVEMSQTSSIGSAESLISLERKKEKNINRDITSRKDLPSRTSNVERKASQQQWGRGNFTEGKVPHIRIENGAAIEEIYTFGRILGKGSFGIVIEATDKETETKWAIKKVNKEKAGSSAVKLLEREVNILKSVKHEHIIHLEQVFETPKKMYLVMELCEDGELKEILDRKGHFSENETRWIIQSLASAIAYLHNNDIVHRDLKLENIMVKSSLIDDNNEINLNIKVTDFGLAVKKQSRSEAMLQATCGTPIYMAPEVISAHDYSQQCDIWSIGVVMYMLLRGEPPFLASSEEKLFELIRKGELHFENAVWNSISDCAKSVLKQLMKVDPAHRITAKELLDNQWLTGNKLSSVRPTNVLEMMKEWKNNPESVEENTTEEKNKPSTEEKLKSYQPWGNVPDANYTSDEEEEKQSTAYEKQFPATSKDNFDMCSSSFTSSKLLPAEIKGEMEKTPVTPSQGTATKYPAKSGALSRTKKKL
Source text: as §2

DYRK1B = DYRK1B (Homo sapiens, UniProt Q9Y463); set-up: DiscoverX kinase panel, active-site competition binding (KINOMEscan type), percent of control at one concentration; conditions: competition binding, percent of control
Source text: as §2

ZAP70 = ZAP70 (Homo sapiens, UniProt P43403); set-up: gene ZAP70; Thermo Fisher SelectScreen kinase panel: Z'-LYTE and Adapta activity, LanthaScreen binding
Sequence of ZAP70 (P43403 whole entry): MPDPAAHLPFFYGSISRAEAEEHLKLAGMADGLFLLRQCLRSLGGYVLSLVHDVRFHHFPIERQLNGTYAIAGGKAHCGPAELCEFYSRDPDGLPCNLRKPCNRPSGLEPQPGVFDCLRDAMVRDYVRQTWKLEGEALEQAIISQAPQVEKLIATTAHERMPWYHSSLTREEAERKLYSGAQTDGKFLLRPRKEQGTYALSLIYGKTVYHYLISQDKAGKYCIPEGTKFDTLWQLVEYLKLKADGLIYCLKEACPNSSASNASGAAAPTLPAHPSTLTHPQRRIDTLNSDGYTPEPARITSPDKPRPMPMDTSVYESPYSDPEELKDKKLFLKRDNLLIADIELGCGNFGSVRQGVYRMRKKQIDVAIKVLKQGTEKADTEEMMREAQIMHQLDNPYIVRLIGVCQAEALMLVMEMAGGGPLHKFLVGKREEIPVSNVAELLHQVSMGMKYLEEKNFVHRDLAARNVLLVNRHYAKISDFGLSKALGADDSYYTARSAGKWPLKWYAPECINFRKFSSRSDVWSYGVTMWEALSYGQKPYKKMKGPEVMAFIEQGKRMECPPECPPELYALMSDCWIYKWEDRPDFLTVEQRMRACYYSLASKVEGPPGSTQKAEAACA
Description: 5 88 GNE684 was tested in Thermo Fisher Scientific SelectScreen assay (Madison, WI) 89 against 221 representative kinases at a concentration of 10 µM, which is 476-fold greater than the Ki app 90 for GNE684 against human RIP1 in the RIP1 enzyme 91 assay. The kinase assays were carried out using Z'-LYTE and Adapta activity and 92 LanthaScreen binding assays (Thermo Fisher Scientific, Madison WI) following 93 protocols developed and performed by Thermo Fisher Scientific 94 (https://www.thermofisher.com/us/en/home/products-and-services/services/custom-95 services/screening-and-profiling-services/selectscreen-profiling-service/selectscreen-96 kinase-profiling-service.html). 97 GNE684 was also tested against 468 kinases in the KINOMEscan scanMAX kinase 98 binding assay panel at a concentration of 10 µM following protocols developed and 99 performed by DiscoverX (http://www.discoverx.com/kinase_profiling).

Sequence of NLK (Q9UBE8 whole entry): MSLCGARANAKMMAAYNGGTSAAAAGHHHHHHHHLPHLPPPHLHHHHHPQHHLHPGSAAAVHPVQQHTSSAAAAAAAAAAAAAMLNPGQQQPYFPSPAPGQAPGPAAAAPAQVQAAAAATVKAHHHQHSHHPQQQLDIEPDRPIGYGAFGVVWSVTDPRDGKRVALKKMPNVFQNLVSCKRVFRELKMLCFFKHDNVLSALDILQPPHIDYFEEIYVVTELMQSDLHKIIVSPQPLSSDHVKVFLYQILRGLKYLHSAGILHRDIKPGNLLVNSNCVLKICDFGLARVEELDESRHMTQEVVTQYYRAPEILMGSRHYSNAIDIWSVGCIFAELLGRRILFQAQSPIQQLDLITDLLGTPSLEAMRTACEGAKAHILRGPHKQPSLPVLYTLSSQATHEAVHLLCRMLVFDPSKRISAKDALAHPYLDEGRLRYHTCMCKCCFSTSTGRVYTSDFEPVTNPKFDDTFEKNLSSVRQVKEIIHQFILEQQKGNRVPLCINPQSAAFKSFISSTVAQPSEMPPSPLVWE

`COc1cc2c(cn1)N(C)C(=O)[C@@H](NC(=O)c1nc3n(n1)[C@H](c1ccccc1)CC3)CC2` [GNE684, (S)-N-((S)-7-methoxy-1-methyl-2-oxo-2,3,4,5-tetrahydro-1H-pyrido[3,4-b]azepin-3-yl)-5-phenyl-6,7-dihydro-5H-pyrrolo[1,2-b][1,2,4]triazole-2-carboxamide] showed an inhibition at 10 µM (NLK) of -0.5%, an inhibition at 10 µM (MET) of -2% and an inhibition at 10 µM (PASK) of 4.5%. It also gave an inhibition at 10 µM (EPHB3) of 3.5%, an inhibition at 10 µM (CDK1/cyclinB) of -0.5% and an inhibition at 10 µM (MTOR) of 2%. It also gave an inhibition at 10 µM (Mer) of -5%, an inhibition at 10 µM (DRAK1) of 0.5% and an inhibition at 10 µM (Ron) of 4.5%. For the same compound, the inhibition at 10 µM (DYRK4) was 2%, the inhibition at 10 µM (FAK) was 7.5% and the inhibition at 10 µM (GRK6) was 6.5%. The inhibition at 10 µM (BTK) was -3.5%, the inhibition at 10 µM (MARK1) was 6.5% and the inhibition at 10 µM (PKC_delta) was 8%. For the same compound, the remaining binding at 10 µM (LTK) was 93%, the remaining binding at 10 µM (STK33) was 86% and the remaining binding at 10 µM (DYRK1B) was 54%. The inhibition at 10 µM (ZAP70) was 1%.
